We go through 27 compounds from patent publication US8536202B2, “Triazole-substituted anthranilamides as pesticides” (Bayer Cropscience AG, priority 2010, dated 2013).

Read-outs that look alike come from different tables or passages of the source.

Series [1] is described as follows: log P determination by HPLC on reversed-phase columns (EEC Directive 79/831 Annex V.A8). The class given is physicochemical. The following applies: pH 2.7. A digest of the protocol:
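Calibration used unbranched alkan-2-ones of 3 to 16 carbons with known log P, values interpolated linearly from retention times between neighbouring standards. Acidic-range LC-MS run at pH 2.7, eluents aqueous and acetonitrile formic acid 0.1%, linear gradient 10% to 95% acetonitrile.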

Series [2] has as its system larvae of the mustard beetle (Phaedon cochleariae). The experiment in a line: Phaedon test (PHAECO spray treatment). The class given is in vivo. The following applies: 168 h, 100 g/ha, after 7 days, read-out: activity in %. A digest of the protocol:
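Mortality of mustard beetle larvae, expressed as percent killed (100% all, 0% none), assessed 7 days after spraying. Spray liquor made from compound in acetone plus dimethylformamide with alkylaryl polyglycol ether, diluted in emulsifier-containing water to the desired concentration.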

For series [3], the system named is caterpillars of the armyworm (Spodoptera frugiperda). Description: Spodoptera frugiperda test (SPODFR spray treatment). The format is in vivo. The settings on record: 168 h, after 7 days; for pest or weed control at 100 g/ha: read-out: activity in %. In a few lines: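 Percent caterpillar mortality read 7 days after infestation (0% none killed, 100% all killed). Treatment was a spray of the acetone/DMF/emulsifier formulation, water-diluted to test concentration, onto Zea mays leaf discs, allowed to dry before larvae were added.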

Series [4] concerns green peach aphid (Myzus persicae). Description: Myzus test (MYZUPE spray treatment), Use Example 4. The format is in vivo. The settings on record: 144 h, 100 g/ha, after 6 days, read-out: activity in %. The protocol: Solvents: 78 parts by weight of acetone • • 1.5 parts by weight of dimethylformamide
Emulsifier: 0.5 part by weight of alkylaryl polyglycol ether
An appropriate preparation of active compound is prepared by mixing 1 part by weight of active compound with the stated amounts of solvents and emulsifier and diluting the concentrate with emulsifier-containing water to the desired concentration.
Leaf discs of Chinese cabbage (Brassica pekinensis) infested by all stages of the green peach aphid (Myzus persicae) are sprayed with a preparation of active compound at the desired concentration.
After 6 days, the activity in % is ascertained. Here, 100% means that all of the aphids have been killed; 0% means that no aphids have been killed.

[5] abbreviates: reversed-phase C18 HPLC column, HPLC on reversed-phase columns (C 18), EEC Directive 79/831 Annex V.A8, read-out: logP.

Take `Cc1cc(C#N)cc(C(=O)NC(C)(C)C)c1NC(=O)c1cc(Cn2cc(C(F)(C(F)(F)F)C(F)(F)F)nn2)nn1-c1ncccc1Cl` [Example 220]: the chromatographic logP in series [1] (setting [5]) amounted to 3.75. In addition, the pest or weed control at 100 g/ha in series [2] and in series [4] was 100% each time. The pest or weed control at 20 g/ha in series [3] is 100%.
On to `Cc1cc(C#N)cc(C(=O)NCC2CC2)c1NC(=O)c1cc(Cn2cc(C(F)(C(F)(F)F)C(F)(F)F)nn2)nn1-c1ncccc1Cl` [Example 221], for which the chromatographic logP in series [1] (setting [5]) amounted to 3.52. For the same compound, the figures for the pest or weed control at 100 g/ha in series [2], in series [3] and in series [4] were 100%, 100% and 80%, respectively.
For `CSC[C@H](C)NC(=O)c1cc(C#N)cc(C)c1NC(=O)c1cc(Cn2cc(C(F)(C(F)(F)F)C(F)(F)F)nn2)nn1-c1ncccc1Cl` [Example 222], in series [1] (setting [5]), the chromatographic logP was determined as 3.63. Moreover, the pest or weed control at 100 g/ha in series [2], in series [3] and in series [4] was 100% each time.
In series [1], `Cc1cc(C#N)cc(C(N)=O)c1NC(=O)c1cc(Cn2cc(C(F)(C(F)(F)F)C(F)(F)F)nn2)nn1-c1ncccc1Cl` [Example 223] returned a chromatographic logP of 2.84. Besides, the pest or weed control at 100 g/ha in series [2] and in series [4] was 100% in each case. Further, the pest or weed control at 20 g/ha in series [3] is 100%.
Consider `Cc1cc(C#N)cc(C(=O)NC2CC2)c1NC(=O)c1cc(Cn2cc(C(F)(C(F)(F)F)C(F)(F)F)nn2)nn1-c1ncccc1Cl` [Example 224], for which the chromatographic logP in series [1] (setting [5]) was found to be 3.24. In addition, the pest or weed control at 100 g/ha in series [2] turned out to be 100%; in series [3], 100%; in series [4] it was 80%.
In series [1], `CNC(=O)c1cc(Cl)cc(C)c1NC(=O)c1cc(Cn2cc(C(F)(C(F)(F)F)C(F)(F)F)nn2)nn1-c1ncccc1Cl` [Example 225] had a chromatographic logP of 3.36. For the same compound, the pest or weed control at 100 g/ha in series [2] and in series [4] was 100% throughout. The compound also showed a pest or weed control at 20 g/ha in series [3] of 100%.
`Cc1cc(Cl)cc(C(=O)NC(C)(C)C)c1NC(=O)c1cc(Cn2cc(C(F)(C(F)(F)F)C(F)(F)F)nn2)nn1-c1ncccc1Cl` [Example 228]: the chromatographic logP in series [1] (setting [5]) stood at 4.19. For the same compound, the results for the pest or weed control at 100 g/ha in series [2], in series [3] and in series [4] were 100%, 100% and 80%, respectively.
Take `CSC[C@H](C)NC(=O)c1cc(Cl)cc(C)c1NC(=O)c1cc(Cn2cc(C(F)(C(F)(F)F)C(F)(F)F)nn2)nn1-c1ncccc1Cl` [Example 230]: the chromatographic logP in series [1] (setting [5]) stood at 4.04. The pest or weed control at 100 g/ha was 100% in series [2], 100% in series [3] and 80% in series [4].
Regarding `CSC[C@H](C)NC(=O)c1cc(I)cc(C)c1NC(=O)c1cc(Cn2cc(C(F)(C(F)(F)F)C(F)(F)F)nn2)nn1-c1ncccc1Cl` [Example 238], the chromatographic logP in series [1] (setting [5]) stood at 4.26. For the same compound, the pest or weed control at 100 g/ha in series [2], in series [3] and in series [4] was 100% throughout.
Consider `CSC[C@H](C)NC(=O)c1cc(Cl)cc(Cl)c1NC(=O)c1cc(Cn2cc(C(F)(C(F)(F)F)C(F)(F)F)nn2)nn1-c1ncccc1Cl` [Example 246], for which the chromatographic logP in series [1] (setting [5]) amounted to 4.02. For the same compound, the pest or weed control at 100 g/ha in series [2] was found to be 100%; in series [3], 100%; in series [4] it was 80%.
The compound `CNC(=O)c1cc(C#N)cc(C)c1NC(=O)c1cc(Cn2ncc(C(F)(C(F)(F)F)C(F)(F)F)n2)nn1-c1ncccc1Cl` [Example 249] registered a chromatographic logP in series [1] of 3.39. For the same compound, the pest or weed control at 100 g/ha in series [2] came to 100%; in series [3] it was 100%; in series [4] it was 80%.
Regarding `CSC[C@H](C)NC(=O)c1cc(C#N)cc(C)c1NC(=O)c1cc(Cn2ncc(C(F)(C(F)(F)F)C(F)(F)F)n2)nn1-c1ncccc1Cl` [Example 254], the chromatographic logP in series [1] (setting [5]) came out at 4.06. For the same compound, the pest or weed control at 100 g/ha was determined as 100% in series [2], 100% in series [3] and 80% in series [4].
In series [1], `Cc1cc(C#N)cc(C(N)=O)c1NC(=O)c1cc(Cn2ncc(C(F)(C(F)(F)F)C(F)(F)F)n2)nn1-c1ncccc1Cl` [Example 255] gave a chromatographic logP of 3.19. Moreover, the pest or weed control at 100 g/ha in series [2] was 100%; in series [3], 100%; in series [4], 80%.
As to `CSC[C@H](C)NC(=O)c1cc(Cl)cc(C)c1NC(=O)c1cc(Cn2ncc(C(F)(C(F)(F)F)C(F)(F)F)n2)nn1-c1ncccc1Cl` [Example 262], the chromatographic logP in series [1] (setting [5]) was found to be 4.45. In addition, the pest or weed control at 100 g/ha in series [2] was found to be 100%; in series [3] it was 100%; in series [4], 80%.
`Cc1cc(I)cc(C(N)=O)c1NC(=O)c1cc(Cn2ncc(C(F)(C(F)(F)F)C(F)(F)F)n2)nn1-c1ncccc1Cl` [Example 271] returned a chromatographic logP in series [1] of 3.7. Moreover, the values for the pest or weed control at 100 g/ha in series [2] and in series [4] were 100% and 80%, respectively. Besides, the pest or weed control at 20 g/ha in series [3] worked out at 100%.
Turning to `CNC(=O)c1cc(Cl)cc(Cl)c1NC(=O)c1cc(Cn2ncc(C(F)(C(F)(F)F)C(F)(F)F)n2)nn1-c1ncccc1Cl` [Example 273], the chromatographic logP in series [1] stood at 3.69. Besides, the pest or weed control at 100 g/ha in series [2], in series [3] and in series [4] was 100% each time.
Turning to `CNC(=O)c1cc(C#N)cc(C)c1NC(=O)c1cc(Cn2ncc(C(F)(F)F)n2)nn1-c1ccccc1Cl` [Example 284], the chromatographic logP in series [1] (setting [5]) was found to be 3.1. Further, the pest or weed control at 100 g/ha in series [2] was 100%; in series [3], 100%; in series [4], 80%.
Take `Cc1cc(C#N)cc(C(=O)NC(C)C)c1NC(=O)c1cc(Cn2ncc(C(F)(F)F)n2)nn1-c1ccccc1Cl` [Example 286]: the chromatographic logP in series [1] (setting [5]) worked out at 3.59. For the same compound, the values for the pest or weed control at 100 g/ha in series [2], in series [3] and in series [4] were 100%, 100% and 80%, respectively.
Turning to `CCNC(=O)c1cc(C#N)cc(C)c1NC(=O)c1cc(Cn2ncc(C(F)(F)F)n2)nn1-c1ccccc1Cl` [Example 288], the chromatographic logP in series [1] (setting [5]) was found to be 3.3. For the same compound, the pest or weed control at 100 g/ha in series [2], in series [3] and in series [4] was 100% each time.
On to `Cc1cc(C#N)cc(C(=O)NC2CC2)c1NC(=O)c1cc(Cn2ncc(C(F)(F)F)n2)nn1-c1ccccc1Cl` [Example 289], for which the chromatographic logP in series [1] (setting [5]) was found to be 3.3. Moreover, the pest or weed control at 100 g/ha in series [2], in series [3] and in series [4] was 100% throughout.
With `CNC(=O)c1cc(Cl)cc(C)c1NC(=O)c1cc(Cn2cc(C(F)(F)F)nn2)nn1-c1ccccc1Cl` [Example 291], the chromatographic logP in series [1] (setting [5]) came to 3.08. For the same compound, the pest or weed control at 100 g/ha came out at 100% in series [2], 100% in series [3] and 80% in series [4].
On to `CNC(=O)c1cc(C#N)cc(C)c1NC(=O)c1cc(Cn2cc(C(F)(F)F)nn2)nn1-c1ccccc1Cl` [Example 293], for which the chromatographic logP in series [1] (setting [5]) came to 2.63. In addition, the pest or weed control at 100 g/ha in series [2] is 100%; in series [3], 100%; in series [4], 80%.
Turning to `CCNC(=O)c1cc(C#N)cc(C)c1NC(=O)c1cc(Cn2cc(C(F)(F)F)nn2)nn1-c1ccccc1Cl` [Example 294], the chromatographic logP in series [1] (setting [5]) was found to be 2.92. Besides, the pest or weed control at 100 g/ha in series [2], in series [3] and in series [4] was 100% throughout.
As to `CNC(=O)c1cc(C#N)cc(C)c1NC(=O)c1cc(Cn2nncc2C(F)(C(F)(F)F)C(F)(F)F)nn1-c1ccccc1Cl` [Example 298], the chromatographic logP in series [1] (setting [5]) is 3.46. Besides, the pest or weed control at 100 g/ha worked out at 100% in series [2], 100% in series [3] and 80% in series [4].
`CNC(=O)c1cc(Cl)cc(C)c1NC(=O)c1cc(Cn2cc(C(F)(F)C(F)(F)F)nn2)nn1-c1ncccc1Cl` [Example 299] displayed a chromatographic logP in series [1] of 3.02. Moreover, the pest or weed control at 100 g/ha in series [2] stood at 100%; in series [3], 100%; in series [4] it was 80%.
Compound `Cc1cc(Cl)cc(C(=O)NC(C)C2CC2)c1NC(=O)c1cc(Cn2cc(C(F)(F)C(F)(F)F)nn2)nn1-c1ncccc1Cl` (stereo not drawn) [Example 300] had a chromatographic logP in series [1] of 3.79. The results for the pest or weed control at 100 g/ha in series [2], in series [3] and in series [4] were 100%, 100% and 90%, respectively.
`Cc1cc(Cl)cc(C(=O)NC2CC2)c1NC(=O)c1cc(Cn2cc(C(F)(F)C(F)(F)F)nn2)nn1-c1ncccc1Cl` [Example 301] registered a chromatographic logP in series [1] of 3.26. Further, the pest or weed control at 100 g/ha was 100% in series [2], 100% in series [3] and 90% in series [4].
